Measurements from patent US11298314B2, “Injectable composition for localized fat reduction without pain, edema, and side effects, and method for preparing same” (AMI PHARM CO., LTD., priority 2017, dated 2022).
Entries after “also recorded” stand apart in the source; their conditions may differ. Read-outs that look alike come from different tables or passages of the source.

Experiments:
mouse paw = assay: In vivo pain: moving distance and moving speed after paw injection; conditions: 100 ul into paw, 2 hours after administration, 5 minutes; listed as PPC 5.0%
Procedure: Specifically, 100 μl of each test material was injected into the floor of the paws of the rats, and edema was observed. […] The movement before and after injection of the test material was compared through distance and time. The movement before and after injection was measured using Noldus Video Traking system and compared with moving distance (FIG. 13A) and moving speed (FIG. 13B).
After the edema was confirmed to be the most at 2 hours after administration, the moving distance (cm) and the moving speed (cm/s) for 5 minutes were compared using Noldus Video Traking system.

paw of the rats = assay: Rat paw edema; assay type: in vivo, Sprague Dawley rats; conditions: for degree of edema, 1 hour after administration / degree of edema, 2 hours after administration / degree of edema, Immediately after administration: 0.1 ml into rat paw, swelling vs before injection; for degree of edema in words: 2 hours after administration, rat paw
Method in brief: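 Male Sprague Dawley rats (6 weeks old, 170–200 g) received 0.1 ml of PBS or test composition into the paw. Paw thickness measured by caliper before, immediately after, and 1 or 2 h post-injection; edema graded 0–4, with injection-site skin lesions photographed.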

[1] = system: tissues of the injected area (rat paw); assay: H&E staining histological test (inflammation) of injected rat paw; assay type: in vivo, Sprague Dawley rats; conditions: for Inflammation reaction: GCA 0.0, H&E of injected rat paw; for degree of inflammation (H&E) in words: rats sacrificed at 3 hours, injected paw
Procedure: The tissues of the injected area were dissected, fixed with 10% formalin, and then the specimen was prepared and images were captured using an optical microscope. The degree of inflammation was evaluated as follows.

3T3-L1 adipocytes [2] = assay: Lipolysis assay (glycerol release); assay type: cell-based; conditions: 48 hours; listed as PPC single
Procedure: The glycerol activity assay was performed with the test materials to determine whether the cell death in the MTT assay was due to necrosis or lipolysis. Glycerol is a specific marker that increases when fat breaks down. Abcam Lipolysis Assay Kit (Colorimetric) was used according to the manufacturer's manual, and the method of the test was as follows: […] And then the lysis was induced. […] After adding the glycerol assay complex (50 μl) thereto, the solution was incubated at room temperature for 30 minutes. Absorbance was measured at OD 570 (using standard curve for absolute determination).

inguinal fat pad = conditions: 0.2 ml s.c. once into inguinal fat pad, 8 days post-injection
[3] = Formulation stability of PPC injectable preparations: property, transparency, particle size, pH
3T3-L1 adipocytes [4] = assay: Adipocyte (3T3-L1) reducing effect, MTT assay; assay type: cell-based; conditions: for adipocyte-reducing activity compared with DCA 1.0% (Kybella): 96 hours
Procedure: Tests were performed to compare the adipocyte reducing activity of the PPC single composition and the PPC composition solubilized with bile acids. Differentiated 3T3L-1 adipocyte lines were used to observe adipocyte reduction activity, and cell viability was monitored by MTT assay. […] Materials and methods employed in the following experiments are described below. In the following, % of the composition refers to % (w/v).
The specific test methods are as follows. […] The cells were washed twice with PBS, treated with MTT reagent (50 μl) and left at 37° C. for 2 hours. After removing the supernatant, MTT formazan crystals were dissolved in DMSO and the absorbance was measured at 540 nm using a microplate reader.
The 3T3-L1 adipocyte (ATCC) was cultured in Dulbecco's modified eagle medium (DMEM) (Invitrogen) supplemented with 10% fetal bovine serum, 100 units/ml penicillin and 100 μg/ml streptomycin under the condition of 5% CO2 and 37° C. […] Subsequently, the medium was replaced with DMEM medium containing 1 μg/ml insulin (Sigma), and the culture medium was maintained and changed every 2 to 3 days until the degree of differentiation reaches maximum. If it took more than 7 days, the cells were kept in normal DMEM culture medium until starting the tests. […] After the cells were incubated for 3 hours under the condition of 37° C. and 5% CO2, the MTT solution was removed.

[5] = system: Caspase 3 in 3T3-L1 adipocytes; assay: Caspase 3 activity assay; assay type: cell-based; conditions: 0-48 hours; listed as PPC single composition
Procedure: The Caspase 3 activity assay was performed with the test materials to determine whether the cell death in the result of MTT assay was due to necrosis or apoptosis. The Caspase 3 specifically increases when apoptosis occurs and is a marker of apoptosis. […] The cells were then treated with 50 ul of cell lysis buffer (10 mM Tris-HCl, 10 mM NaH2PO4/NaHPO4, pH 7.5, 130 mM NaCl, 1% Triton X-100 and 10 mM sodium pyrophosphate) and left at 4° C. for […]. The supernatant was collected by centrifugation at 1000× rpm for 1 minute, and protein quantification was performed by BCA method. The 50 μl of reaction buffer (4 mM HEPES, pH 7.5, 10% glycerol, 2 mM dithiothreitol) and 0.5 μl of 4 mM DEVD-p-NA were added to each sample and reacted at 37° C. for 1 hour. Then wavelength was measured with a […] at 405 nm.

Substance: 1,2-diacyl-sn-glycero-3-phosphocholine [PPC]
- change of moving distance and moving speed (mouse paw): not changed or slightly increased; also recorded: wasn't changed or was slightly increased
- degree of edema, 1 hour after administration (paw of the rats; listed as PPC 1.25%): + (mild edema [+, (the degree of swelling was 1-20% compared to before the injection)])
- degree of edema, 2 hours after administration (paw of the rats; listed as PPC 1.25%): + (mild edema [+, (the degree of swelling was 1-20% compared to before the injection)])
- degree of edema, Immediately after administration (paw of the rats; listed as PPC 1.25%): + (mild edema [+, (the degree of swelling was 1-20% compared to before the injection)])
- degree of edema, 1 hour after administration (paw of the rats; listed as PPC 2.50%): + (mild edema [+, (the degree of swelling was 1-20% compared to before the injection)])
- degree of edema, 2 hours after administration (paw of the rats; listed as PPC 2.50%): + (mild edema [+, (the degree of swelling was 1-20% compared to before the injection)])
- degree of edema, Immediately after administration (paw of the rats; listed as PPC 2.50%): + (mild edema [+, (the degree of swelling was 1-20% compared to before the injection)])
- degree of edema, 1 hour after administration (paw of the rats; listed as PPC 5.00%): + (mild edema [+, (the degree of swelling was 1-20% compared to before the injection)])
- degree of edema, 2 hours after administration (paw of the rats; listed as PPC 5.00%): + (mild edema [+, (the degree of swelling was 1-20% compared to before the injection)])
- degree of edema, Immediately after administration (paw of the rats; listed as PPC 5.00%): + (mild edema [+, (the degree of swelling was 1-20% compared to before the injection)])
- degree of edema, 1 hour after administration (paw of the rats; listed as PPC 7.50%): + (mild edema [+, (the degree of swelling was 1-20% compared to before the injection)])
- degree of edema, 2 hours after administration (paw of the rats; listed as PPC 7.50%): + (mild edema [+, (the degree of swelling was 1-20% compared to before the injection)])
- degree of edema, Immediately after administration (paw of the rats; listed as PPC 7.50%): ++ (moderate edema [++, (the degree of swelling was 20-40% compared to before the injection)])
- degree of edema, 1 hour after administration (paw of the rats; listed as PPC 10.0%): + (mild edema [+, (the degree of swelling was 1-20% compared to before the injection)])
- degree of edema, 2 hours after administration (paw of the rats; listed as PPC 10.0%): + (mild edema [+, (the degree of swelling was 1-20% compared to before the injection)])
- degree of edema, Immediately after administration (paw of the rats; listed as PPC 10.0%): ++ (moderate edema [++, (the degree of swelling was 20-40% compared to before the injection)])
- degree of edema, 1 hour after administration (paw of the rats; listed as PPC 12.5%): ++ (moderate edema [++, (the degree of swelling was 20-40% compared to before the injection)])
- degree of edema, 2 hours after administration (paw of the rats; listed as PPC 12.5%): ++ (moderate edema [++, (the degree of swelling was 20-40% compared to before the injection)])
- degree of edema, Immediately after administration (paw of the rats; listed as PPC 12.5%): ++ (moderate edema [++, (the degree of swelling was 20-40% compared to before the injection)])
- degree of edema, 1 hour after administration (paw of the rats; listed as PPC 15.0%): ++ (moderate edema [++, (the degree of swelling was 20-40% compared to before the injection)])
- degree of edema, 2 hours after administration (paw of the rats; listed as PPC 15.0%): ++ (moderate edema [++, (the degree of swelling was 20-40% compared to before the injection)])
- degree of edema, Immediately after administration (paw of the rats; listed as PPC 15.0%): +++ (severe edema [+++, (the degree of swelling was 40-60% compared to before the injection)])
- degree of edema in words (paw of the rats; listed as PPC 12.5%): moderate
- degree of edema in words (paw of the rats; listed as PPC 15.0%): moderate
- Inflammation reaction ([1]; PPC single composition 2.50% (w/v)): −
- Inflammation reaction ([1]; PPC single composition 5.00% (w/v)): −
- Inflammation reaction ([1]; PPC single composition 7.50% (w/v)): −
- Inflammation reaction ([1]; PPC single composition 10.0% (w/v)): +
- Inflammation reaction ([1]; PPC single composition 12.5% (w/v)): +
- Inflammation reaction ([1]; PPC single composition 15.0% (w/v)): ++
- degree of inflammation (H&E) in words ([1]; listed as PPC 10.0%): Mild
- degree of inflammation (H&E) in words ([1]; listed as PPC 12.5%): Mild
- degree of inflammation (H&E) in words ([1]; listed as PPC 15.0%): moderate
- glycerol release / cytolytic activity (3T3-L1 adipocytes [2]): slightly higher cytolytic activity than at 24 hours; also recorded: slightly higher cytolytic activity than that of 24 hours
- inflammation at the site of administration, dermal and epidermal tissues (inguinal fat pad): no inflammatory cells such as neutrophils
- histological change of adipocytes in fat tissue (inguinal fat pad; listed as PPC 5.0%): size of adipocytes was reduced
- histological change of adipocytes in fat tissue (inguinal fat pad; listed as PPC 15.0%): development of macrophages was confirmed around adipocytes
- histological change of adipocytes in fat tissue (inguinal fat pad; listed as PPC single composition): adipocyte apoptosis and degradation were induced in a concentration-dependent manner
- formulation stability / property in words [3]: poor formulation stability
- adipocyte viability / adipocyte-reducing activity (3T3-L1 adipocytes [4]; 24 to 96 hours, various concentrations, listed as PPC single composition): reduced adipocyte viability in time and concentration dependent manner
- adipocyte-reducing activity compared with DCA 1.0% (Kybella) (3T3-L1 adipocytes [4]; listed as PPC 5%): equivalent
- adipocyte-reducing activity compared with DCA 1.0% (Kybella) (3T3-L1 adipocytes [4]; listed as PPC 5.0%): similar; also recorded: equivalent
- concentration of phosphatidylcholine with no lipolysis effect (3T3-L1 adipocytes [4]; FIGS. 7A to 7D): less than 0.625 % (w/v)
- caspase-3 activity [5]: time-dependent effect of inducing caspase-3 activity to a considerable level; also recorded: time-dependent effect of inducing caspase-3 activity to a considerable extent
